Measured values as given in paper PMC10746280, “Bacterial efflux pump modulators prevent bacterial growth in macrophages and under broth conditions that mimic the host environment” (mBio, 2023).

Experiments:
[1] = test system: S. Typhimurium SL1344 (sifB::gfp) in RAW 264.7 macrophages; assay: SAFIRE macrophage assay: intracellular bacterial load (GFP signal within macrophages); assay type: cell-based, Salmonella enterica serotype Typhimurium; settings: for 5 uM Avg Antibacterial Score / 25 uM Avg Antibacterial Score: 'Toxic' given instead of a score; for IC50: Salmonella enterica, TYPHIMURIUM, RAW264.7, read-out: SAFIRE IC50
How it was run: (§1)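 RAW 264.7 macrophages infected with S. Typhimurium SL1344 sifB::gfp (MOI ~30), gentamicin 40 µg/mL, then compound from 2 h to 18 h post-infection. Confocal imaging with MitoTracker and DAPI; toxicity as adherent MitoTracker-positive macrophage count, bacterial load as GFP+ macrophage area.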

RAW 264.7 macrophages = assay: SAFIRE macrophage assay: host toxicity (adherent macrophage count, morphology); assay type: cell-based; settings: for toxicity to infected macrophages in SAFIRE: 16 h after treatment
How it was run: as §1

SMILES | 5 uM Avg Antibacterial Score [1] | 25 uM Avg Antibacterial Score [1] | 5 uM Avg Cell # Score (RAW 264.7 macrophages) | 25 uM Avg Cell # Score (RAW 264.7 macrophages) | IC50 [1] | toxicity to infected macrophages in SAFIRE (RAW 264.7 macrophages)
OC(COc1ccc(Cl)c(Cl)c1)CN1CCn2c([3F])nnc2C1 (centres unmarked) [CU157] | 115 | 109 | 109 | 106 | – | –
OC(COc1ccc(Cl)c(Cl)c1)CN1CCC(Oc2ncccn2)CC1 (centres unmarked) [CU158] | 110 | 61 | 106 | 103 | – | –
OC(CNC1Cc2ccccc2C1)COc1ccc(Cl)c(Cl)c1 (centres unmarked) [CU159] | 102 | Toxic | 117 | 97 | – | –
NC1CCN(C[C@H](O)COc2ccc(Cl)c(Cl)c2)C1 (some centres unmarked) [CU160] | 51 | 35 | 137 | 129 | 2.6 nM | –
NC1CCN(C[C@@H](O)COc2ccc(Cl)c(Cl)c2)C1 (some centres unmarked) [CU161] | 55 | 33 | 138 | 113 | 81.4 nM | non-toxic
CNC1CCN(C[C@H](O)COc2ccc(Cl)c(Cl)c2)C1 (some centres unmarked) [CU162] | 68 | 46 | 124 | 126 | – | –
CNC1CCN(C[C@@H](O)COc2ccc(Cl)c(Cl)c2)C1 (some centres unmarked) [CU163] | 65 | 47 | 101 | 111 | – | –
OC1CCN(CC(O)COc2ccc(Cl)c(Cl)c2)CC1 (centres unmarked) [CU164] | 106 | 82 | 98 | 126 | – | –
NC1CCN(CC(O)COc2ccc(Cl)cc2)C1 (centres unmarked) [CU165] | 63 | 32 | 105 | 109 | – | –
NC1CCN(CC(O)COc2ccc(Cl)cc2Cl)C1 (centres unmarked) [CU166] | 44 | 19 | 105 | 108 | – | –
NC1CCN(CC(O)COc2ccc(F)cc2F)C1 (centres unmarked) [CU167] | 75 | 58 | 109 | 113 | – | –
CCOC(=O)c1cccc(OCC(O)CN2CCC(N)C2)c1 (centres unmarked) [CU168] | 73 | 55 | 101 | 111 | – | –
OC(COc1ccc(F)c(F)c1)CN1CCC(Nc2nccc(C(F)(F)F)n2)CC1 (centres unmarked) [CU169] | 84 | 6 | 106 | 91 | – | –
OC(COc1ccc(F)c(F)c1)CN1CCC(Nc2ncccn2)CC1 (centres unmarked) [CU170] | 109 | 107 | 100 | 107 | – | –
NC1CCN(CC(O)COc2ccc(F)c(F)c2)CC1 (centres unmarked) [CU171] | 61 | 45 | 108 | 96 | – | –
NC1CCN(CC(O)COc2ccc(F)c(F)c2)C1 (centres unmarked) [CU172] | 70 | 57 | 108 | 103 | – | –
NC1CCN(CC(O)COc2ccc(Cl)c(Cl)c2)CC1 (centres unmarked) [CU173] | 20 | 30 | 98 | 43 | – | toxic
OC(CNC1CCNCC1)COc1ccc(Cl)c(Cl)c1 (centres unmarked) [CU174] | 40 | 18 | 98 | 97 | – | –
CN1CCC(N(C)CC(O)COc2ccc(Cl)c(Cl)c2)C1 (centres unmarked) [CU175] | 65 | 22 | 108 | 95 | – | –
CNC1CCN(CC(O)COc2ccc(F)c(F)c2)C1 (centres unmarked) [CU176] | 83 | 58 | 102 | 111 | – | –
CN(CC(O)COc1ccc(Cl)c(Cl)c1)C1CCNCC1 (centres unmarked) [CU177] | 45 | 16 | 101 | 96 | – | –
CN(CC(O)COc1ccc(F)c(F)c1)C1CCNCC1 (centres unmarked) [CU178] | 72 | 51 | 99 | 97 | – | –
OC(COc1ccc(Cl)c(Cl)c1)CN1CCC(n2ccnc2)CC1 (centres unmarked) [CU179] | 36 | 19 | 98 | 91 | 45 nM | –

SMILES | 5 uM Avg Antibacterial Score [1] | 25 uM Avg Antibacterial Score [1] | 5 uM Avg Cell # Score (RAW 264.7 macrophages) | 25 uM Avg Cell # Score (RAW 264.7 macrophages) | IC50 [1] | toxicity to infected macrophages in SAFIRE (RAW 264.7 macrophages)
OC(COc1ccc(Cl)c(Cl)c1)CN1CCN(C2CCOC2)CC1 (centres unmarked) [CU180] | 106 | 82 | 96 | 100 | – | –
OC(COc1ccc(Cl)c(Cl)c1)CN1CCN(C2COC2)CC1 (centres unmarked) [CU181] | 109 | 94 | 100 | 101 | – | –
OC(COc1ccc(Cl)c(Cl)c1)CN1CCN(C2CC2)CC1 (centres unmarked) [CU182] | 105 | 73 | 102 | 101 | – | –
OC(COc1ccc(Cl)c(Cl)c1)CN1CCN(CC2CC2)CC1 (centres unmarked) [CU183] | 92 | 25 | 103 | 105 | – | –
O=C1CN(CC(O)COc2ccc(Cl)c(Cl)c2)CCN1 (centres unmarked) [CU184] | 103 | 102 | 91 | 97 | – | –
OC(COc1ccc(Cl)c(Cl)c1)CN1CCC(N2CCOCC2)CC1 (centres unmarked) [CU185] | 87 | 76 | 120 | 125 | – | –
OC(COc1cccc2ncccc12)CN1CCC(Nc2nccc(C(F)(F)F)n2)CC1 (centres unmarked) [CU186] | 101 | 9 | 121 | 72 | – | –
NC1CCN(CC(O)COc2cccc(Cl)c2)CC1 (centres unmarked) [CU188] | 33 | 25 | 110 | 111 | – | –
NC1CCN(CC(O)COc2ccccc2Cl)CC1 (centres unmarked) [CU189] | 61 | 49 | 107 | 109 | – | –
NC1CCN(CC(O)COc2ccc(Cl)cc2Cl)CC1 (centres unmarked) [CU190] | 24 | 21 | 101 | 87 | – | –
NC1CCN(CC(O)COc2cc(Cl)cc(Cl)c2)CC1 (centres unmarked) [CU191] | 14 | Toxic | 100 | 15 | – | –
NC1CCN(CC(O)COc2c(Cl)cccc2Cl)CC1 (centres unmarked) [CU192] | 52 | 30 | 96 | 92 | 6.9 nM | –
N[C@@H]1CCN(CC(O)COc2ccc(Cl)c(Cl)c2)C1 (some centres unmarked) [CU193] | 28 | 14 | 100 | 98 | 11.5 nM | –
N[C@H]1CCN(CC(O)COc2ccc(Cl)c(Cl)c2)C1 (some centres unmarked) [CU194] | 18 | 12 | 100 | 103 | – | –
O=C1OC(COc2ccc(Cl)c(Cl)c2)CN1c1ccc(N2CCOCC2)cc1 (centres unmarked) [CU195] | 107 | 103 | 114 | 82 | – | –
O=C(O)c1cn(C2CC2)c2cc(N3CCN(CC(O)COc4ccc(Cl)c(Cl)c4)CC3)c(F)cc2c1=O (centres unmarked) [CU196] | 86 | Toxic | 103 | 13 | – | –
N=C(N)NC1CCN(CC(O)COc2ccc(Cl)c(Cl)c2)C1 (centres unmarked) [CU197] | 103 | 87 | 109 | 117 | – | –
OC(CNC1CCNCC1)COc1ccc(Cl)cc1 (centres unmarked) [CU198] | 83 | 34 | 110 | 110 | – | –
OC(CNC1CCNCC1)COc1cccc(Cl)c1 (centres unmarked) [CU199] | 83 | 55 | 105 | 115 | – | –
OC(CNC1CCNCC1)COc1ccccc1Cl (centres unmarked) [CU200] | 92 | 65 | 99 | 108 | – | –
OC(CNC1CCNCC1)COc1ccc(Cl)cc1Cl (centres unmarked) [CU201] | 44 | 13 | 109 | 102 | – | –
OC(CNC1CCNCC1)COc1cc(Cl)cc(Cl)c1 (centres unmarked) [CU202] | 34 | 11 | 100 | 95 | – | –
N[C@@H]1CCN(CC(O)COc2cc(Cl)cc(Cl)c2)C1 (some centres unmarked) [CU203] | 33 | 9 | 98 | 106 | – | –
